From patent US12402622B2, “Agricultural compositions and methods of use thereof” (Valent U.S.A. LLC, priority 2019, dated 2025)

Experiments:
[1] = tested on: soybean petioles/leaves at V6 stage; experiment: Soybean petiole detached assay (translocation of S-3100), Example 6; assay type: in vivo; settings: 21 DAT, S-3100 20 g/HA, mannitol or sorbitol 6800 g/HA, FIG. 1
Protocol: FIG. 1. Soybean plant leaf at V6 stage. A. untreated control. B. Treated with 20 g/HA S-3100. C. Treated with 6800 g/HA mannitol. D. Treated with 6800 g/HA sorbitol. E. Treated with 20 g/HA S-3100 and 6800 g/HA mannitol. F. Treated with 20 g/HA S-3100 and 6800 g/HA sorbitol.
4 plots of soybeans were grown to the V6 stage. Soybean petioles of plants at the V6 stage were treated in a petiole detached assay with 1 of the following 4 treatments: 1) untreated; 2) 20 g/HA S-3100; 3) 20 g/HA S-3100 and 6800 g/HA mannitol or 4) 20 g/HA S-3100 and 6800 g/HA sorbitol. Results were recorded 21 DAT. Results can be seen in FIG. 1.

crabgrass = experiment: Control of crabgrass (10 inches), spray chamber, sugar alcohol rate series, Example 3; assay type: in vivo, Digitaria sanguinalis; settings: for control of crabgrass relative to S-3100 alone: 7 and 14 DAT, sugar alcohol at 1700, 3400, 6800, 13600 and 27200 g/HA with S-3100; for % control: S-3100 20 g/HA alone
Protocol: (§1) 12 trials were conducted on the efficacy of S-3100 with or without mannitol or sorbitol at various application rates. Specifically, 12 plots of crabgrass were grown to 10 inches in height. These plots were placed in a spray chamber for treatment. All compositions contained 1% v/v of Agridex® and 0.25% v/v of Induce®. Treatments and results can be found in Table 3, below.

volunteer corn = experiment: Control and lodging of volunteer corn (14 inches), spray chamber, sugar alcohol rate series, Example 4; assay type: in vivo; settings: for lodging on addition of the sugar alcohol to S-3100: addition to S-3100, rate not given; for control of volunteer corn relative to S-3100 alone: sugar alcohol at 1700, 3400, 6800, 13600 and 27200 g/HA with S-3100
Protocol: as §1, with “of volunteer corn” for “of crabgrass”, “to 14” for “to 10”, “Table 4,” for “Table 3,”

barnyard grass [2] = experiment: Control of barnyard grass (10 inches), spray chamber, sugar alcohol rate series, Example 5; assay type: in vivo, Echinochloa crus-galli; settings: for control of barnyard grass relative to S-3100 alone: 7 and 14 DAT, sugar alcohol at 1700, 3400, 6800, 13600 and 27200 g/HA with S-3100; for % control: S-3100 20 g/HA alone
Protocol: as §1, with “barnyard grass” for “crabgrass”, “5,” for “3,”

barnyard grass [3] = experiment: Control of barnyard grass (6 inches), spray chamber, Example 1; assay type: in vivo, Echinochloa crus-galli; settings: S-3100 20 g/HA, mannitol or sorbitol 6800 g/HA where combined
Protocol: 4 trials were conducted on the efficacy of ethyl [3-[2-chloro-4-fluoro-5-(1-methyl-6-trifluoromethyl-2,4-dioxo-1,2,3,4-tetrahydropyrimidin-3-yl)phenoxy]-2-pyridyloxy]acetate (“S-3100”) with or without mannitol or sorbitol. Specifically, 4 plots of barnyard grass were grown to 6 inches in height. These plots were placed in a spray chamber for treatment. All compositions contained 1% v/v of Agridex® and 0.25% v/v of Induce®. Treatments and results can be found in Table 1, below.

corn = experiment: Control of corn (12 inches), spray chamber, Example 2; assay type: in vivo; settings: S-3100 20 g/HA, mannitol or sorbitol 6800 g/HA where combined
Protocol: 4 trials were conducted on the efficacy of S-3100 with or without mannitol or sorbitol. Specifically, 4 plots of corn were grown to 12 inches in height. These plots were placed in a spray chamber for treatment. All compositions contained 1% v/v of Agridex® and 0.25% v/v of Induce®. Treatments and results can be found in Table 2, below.

Which “leaf symptoms (necrosis, yellowing, bronzing) as sign of translocation” value [1] does the source give for `OC[C@@H](O)[C@@H](O)[C@H](O)[C@H](O)CO` [mannitol] here?
Its value is “necrotic areas on the leaf tissue”.

What about the “control of crabgrass relative to S-3100 alone” value (crabgrass) of the same compound?
The value was “increase control of crabgrass over S-3100 alone”.

What about the “lodging on addition of the sugar alcohol to S-3100” value (volunteer corn) of the same compound?
Its value is “did not increase lodging”.

What about the “control of volunteer corn relative to S-3100 alone” value (volunteer corn) of the same compound?
Its value is “increase control of volunteer corn over S-3100 alone”.

What about the “control of barnyard grass relative to S-3100 alone” value (barnyard grass [2]) of the same compound?
The value was “increase control of barnyard grass over S-3100 alone”.

`CCOC(=O)COc1ncccc1Oc1cc(-n2c(=O)cc(C(F)(F)F)n(C)c2=O)c(F)cc1Cl` [S-3100, ethyl [3-[2-chloro-4-fluoro-5-(1-methyl-6-trifluoromethyl-2,4-dioxo-1,2,3,4-tetrahydropyrimidin-3-yl)phenoxy]-2-pyridyloxy]acetate] was tested. Which “leaf symptoms (necrosis, yellowing, bronzing) as sign of translocation” value [1] did it give?
Its value is “leaf yellowing and vein necrosis especially on the main vascular tissue”.

And the “% control” value (crabgrass; 7 DAT)?
Its value is 81.3%.

What about the “% control” value (crabgrass; 14 DAT) of the same compound?
The value was 76.9%.

And the “% control” value (volunteer corn; 7 DAT, S-3100 20 g/HA alone)?
Its value is 80.6%.

And the “% lodging” value (volunteer corn; 8 DAT, S-3100 20 g/HA alone)?
The value was 75%.

And the “% control” value (barnyard grass [3]; 2 days after treatment, 1% v/v Agridex, 0.25% v/v Induce)?
Its value is 27.2%.

And the “% control” value (barnyard grass [3]; 7 days after treatment)?
Its value is 72.1%.

What about the “% control” value (barnyard grass [3]; 13 days after treatment) of the same compound?
Its value is 49.3%.

And the “% control” value (barnyard grass [3]; 20 days after treatment)?
The value was 40%.

What about the “% control” value (corn; 9 days after treatment, 1% v/v Agridex, 0.25% v/v Induce) of the same compound?
Its value is 55.8%.

And the “% control” value (corn; 13 days after treatment)?
The value was 52.5%.

And the “% control” value (corn; 22 days after treatment)?
The value was 25%.

What about the “% control” value (barnyard grass [2]; 7 DAT) of the same compound?
The value was 94.1%.

And the “% control” value (barnyard grass [2]; 14 DAT)?
Its value is 89.1%.

What does the source list for `OC[C@@H](O)[C@@H](O)[C@H](O)[C@@H](O)CO` [sorbitol]?
control of crabgrass relative to S-3100 alone (crabgrass): increase control of crabgrass over S-3100 alone; lodging on addition of the sugar alcohol to S-3100 (volunteer corn): 100%; control of volunteer corn relative to S-3100 alone (volunteer corn): increase control of volunteer corn over S-3100 alone; control of barnyard grass relative to S-3100 alone (barnyard grass [2]): increase control of barnyard grass over S-3100 alone
